In US20260250320A1, “LIPIDATED PEPTIDE INHIBITORS OF INTERLEUKIN-23 RECEPTOR” (Janssen Pharmaceutica NV, priority 2023, published 2026) one finds IC50 data, which are given here for six molecules.

As a reminder, the pIC50 is the IC50 on a negative log10 scale, so that one unit is a factor of ten. A higher pIC50 goes with a small IC50.

In assay [1] the target is T1, IL-23R (Homo sapiens, UniProt Q5VWK5).
T1 construct: HEK293 cells containing IL-23R, IL-12Rβ1 and a firefly luciferase reporter gene driven by a STAT-inducible promoter (Promega); host or cells: HEK293
T1 sequence (Q5VWK5 24-629): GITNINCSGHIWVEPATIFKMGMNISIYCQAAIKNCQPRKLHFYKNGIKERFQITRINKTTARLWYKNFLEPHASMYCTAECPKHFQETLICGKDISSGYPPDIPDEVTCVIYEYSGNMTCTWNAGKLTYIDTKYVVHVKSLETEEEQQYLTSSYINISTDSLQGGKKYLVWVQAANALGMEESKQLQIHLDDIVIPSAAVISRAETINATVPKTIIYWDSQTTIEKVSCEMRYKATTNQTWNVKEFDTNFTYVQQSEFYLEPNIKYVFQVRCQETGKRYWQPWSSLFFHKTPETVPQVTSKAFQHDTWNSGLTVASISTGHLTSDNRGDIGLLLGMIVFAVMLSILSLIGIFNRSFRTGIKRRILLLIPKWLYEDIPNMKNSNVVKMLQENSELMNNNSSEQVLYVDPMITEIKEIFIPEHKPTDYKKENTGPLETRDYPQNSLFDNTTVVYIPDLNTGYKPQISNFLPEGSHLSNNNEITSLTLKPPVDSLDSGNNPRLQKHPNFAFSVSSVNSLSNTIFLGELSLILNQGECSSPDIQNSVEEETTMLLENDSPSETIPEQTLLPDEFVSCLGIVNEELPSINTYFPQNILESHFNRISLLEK
Description: IL23R Reporter Assay. The class given is cell-based. The settings on record: HEK293 cells containing IL-23R, IL-12Rβ1 and STAT-inducible firefly luciferase reporter; 10 ng/mL IL-23 (EC90); 5 h. Summed up:
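HEK293 cells carrying IL-23R, IL-12Rβ1 and a STAT-driven firefly luciferase reporter (4000 cells/well) received compound, then 10 ng/mL IL-23 solution (EC90), and were incubated for 5 h at 37° C. BioGlo luminescence was normalised to IL-23 alone (0%) and 30 μM control inhibitor (100%). IC50 came from a 4-parameter Hill fit.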
(In general: Reporter assays use an easily measured gene product as a stand-in for the process of interest.)

Assay [2] concerns IL-23-stimulated phosphorylated STAT3 in peripheral blood mononuclear cells (PBMCs). In words: PBMC pSTAT3 Assay. The settings on record: PBMCs from healthy donors; 30 min preincubation with peptide; IL-23 5 ng/mL for 30 min; phospho-STAT3 by MSD. The class given is cell-based. In a few lines:
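Healthy-donor PBMCs expanded 4 days on anti-CD3 with 100 ng/mL IL-1β, starved ~4 h in RPMI-0.1% BSA, preincubated 30 min with peptide, then stimulated 30 min at 37 °C with 5 ng/mL IL-23. Lysate pSTAT3 measured by MSD phospho-STAT panel; IC50 derived.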

pIC50: −log10 of the molar value. *1 amine or outer side, *2 acyl side, *3 side chain or, on linkers, in order; H or OH if unused. Where a SMILES comes first, the peptide text is derived from it. Bridges are numbered along the chain shown (N, C = ends). Side-chain parts run from the residue outwards. [ ]: non-standard residue; d: D form. The star is where a group is joined. X14 = CC(=O)N(C)CCCC[C@H](CC(=O)C1(N*)CCOCC1)C(=O)N[C@@H](CC(N)=O)C(=O)N[C@@H](Cc1cccnc1)C(=O)N(C)CC(=O)N(C)C; Me3N+(CH2)2O(CH2)2O(CH2)2CO = C[N+](C)(C)CCOCCOCCC(=O)*; PEG12 = NCCOCCOCCOCCOCCOCCOCCOCCOCCOCCOCCOCCOCCC(=O)O; Trp(7-Me) = Cc1cccc2c(C[C@H](N)C(=O)O)c[nH]c12; C22 diacid = O=C(O)CCCCCCCCCCCCCCCCCCCCC(=O)*; X37 = Cc1cccc2c1CC=C2C[C@H](N[*:1])C(=O)[*:2]; C18 diacid = O=C(O)CCCCCCCCCCCCCCCCC(=O)*; γGlu = O=C(O)[C@H](CCC(=O)[*:2])N[*:1]; 2Nal = N[C@@H](Cc1ccc2ccccc2c1)C(=O)O; 3Pal = N[C@@H](Cc1cccnc1)C(=O)O; Lys(Me) = CNCCCC[C@H](N)C(=O)O; Pen = CC(C)(S)[C@H](N)C(=O)O; Thp = NC1(C(=O)O)CCOCC1; X1 = C[N+](C)(C)CCCCC*; AEEA = NCCOCCOCC(=O)O; Sar = CNCC(=O)O

For the molecule `CC(=O)N(C)CCCC[C@@H]1NC(=O)[C@H](Cc2c[nH]c3c(C)cccc23)NC(=O)[C@H]([C@@H](C)O)NC(=O)[C@H](CC(=O)N(C)C)NC(=O)[C@@H](NC(=O)COCCOCCNC(=O)COCCOCCNC(=O)CC[C@H](NC(=O)CCCCCCCCCCCCCCCCC(=O)O)C(=O)O)C(C)(C)SSC(C)(C)[C@@H](C(=O)N[C@@H](Cc2ccc(OCCCCC[N+](C)(C)C)cc2)C(=O)N[C@@H](Cc2ccc3ccccc3c2)C(=O)NC2(C(=O)N[C@@H](CCCCN(C)C(C)=O)C(=O)N[C@@H](CC(N)=O)C(=O)N[C@@H](Cc3cccnc3)C(=O)N(C)CC(=O)N(C)C)CCOCC2)NC1=O` [compound 118, HOC18gEPEG2PEG2CO-Pen(3)-N(N(Me)2)-T-7MeW-K(NMeAc)-Pen(3)-TMAPF-2Nal-THP-K(NMeAc)-N-3Pya-Sar-CON(Me)2] ({C18 diacid-γGlu-AEEA-AEEA}-[Pen]D(NMe2)T[Trp(7-Me)][Lys(Me)](Ac)[Pen]Y(X1)[2Nal][Thp][Lys(Me)](Ac)N[3Pal][Sar]-NMe2; disulfide 1-6), the pIC50 in assay [1] was over 7.30; in assay [2], over 9.30.
For `CC(=O)N(C)CCCC[C@H](CC(=O)C1(NC(=O)[C@H](Cc2ccc3ccccc3c2)NC(=O)[C@H](Cc2ccc(OCCCCC[N+](C)(C)C)cc2)NC(=O)[C@H]2NC(=O)[C@H](CCCCN(C)C(C)=O)NC(=O)[C@H](Cc3c[nH]c4c(C)cccc34)NC(=O)[C@H]([C@@H](C)O)NC(=O)[C@H](CC(=O)N(C)C)NC(=O)[C@@H](NC(=O)COCCOCCNC(=O)COCCOCCNC(=O)CC[C@H](NC(=O)CCCCCCCCCCCCCCCCCCCCC(=O)O)C(=O)O)C(C)(C)SSC2(C)C)CCOCC1)C(=O)N[C@@H](CC(N)=O)C(=O)N[C@@H](Cc1cccnc1)C(=O)N(C)CC(=O)N(C)C` [compound 119, HOC20gEPEG2PEG2CO-Pen(3)-N(N(Me)2)-T-7MeW-K(NMeAc)-Pen(3)-TMAPF-2Nal-THP-K(NMeAc)-N-3Pya-Sar-CON(Me)2] ({C22 diacid-γGlu-AEEA-AEEA}-[Pen]D(NMe2)T[Trp(7-Me)][Lys(Me)](Ac)[Pen]Y(X1)[2Nal]-X14; disulfide 1-6), in that order: over 7.30 and over 9.30.
Regarding `CC(=O)N(C)CCCC[C@@H]1NC(=O)[C@H](Cc2c[nH]c3c(C)cccc23)NC(=O)[C@H]([C@@H](C)O)NC(=O)[C@H](CC(=O)N(C)C)NC(=O)[C@@H](NC(=O)CCOCCOCC[N+](C)(C)C)C(C)(C)SSC(C)(C)[C@@H](C(=O)N[C@@H](Cc2ccc(OCCCCC[N+](C)(C)C)cc2)C(=O)N[C@@H](Cc2ccc3ccccc3c2)C(=O)NC2(C(=O)N[C@@H](CCCCNC(=O)COCCOCCNC(=O)COCCOCCNC(=O)CC[C@H](NC(=O)CCCCCCCCCCCCCCCCC(=O)O)C(=O)O)C(=O)N[C@@H](CC(N)=O)C(=O)N[C@@H](Cc3ccccc3)C(=O)N(C)CC(=O)N(C)C)CCOCC2)NC1=O` [compound 120, cPEG3aCO-Pen(3)-N(N(Me)2)-T-7MeW-K(NMeAc)-Pen(3)-TMAPF-2Nal-THP-K(PEG2PEG2gEC18OH)-N-3Pya-Sar-CON(Me)2] ({Me3N+(CH2)2O(CH2)2O(CH2)2CO}-[Pen]D(NMe2)T[Trp(7-Me)][Lys(Me)](Ac)[Pen]Y(X1)[2Nal][Thp]K([AEEA-AEEA-γGlu-C18 diacid])NF[Sar]-NMe2; disulfide 1-6), the pIC50 in assay [1] is over 7.30; in assay [2], over 9.30.
For `CC(=O)N(C)CCCC[C@@H]1NC(=O)[C@H](Cc2c[nH]c3ccccc23)NC(=O)[C@H]([C@@H](C)O)NC(=O)[C@H](CCCCNC(=O)COCCOCCNC(=O)COCCOCCNC(=O)CC[C@H](NC(=O)CCCCCCCCCCCCCCCCC(=O)O)C(=O)O)NC(=O)[C@@H](NC(=O)CCOCCOCC[N+](C)(C)C)C(C)(C)SSC(C)(C)[C@@H](C(=O)N[C@@H](Cc2ccc(OCCCCC[N+](C)(C)C)cc2)C(=O)N[C@@H](Cc2ccc3ccccc3c2)C(=O)NC2(C(=O)N[C@@H](CCCCN(C)C(C)=O)C(=O)N[C@@H](CC(N)=O)C(=O)N[C@@H](Cc3cccnc3)C(=O)N(C)CC(=O)N(C)C)CCOCC2)NC1=O` [compound 122, cPEG3aCO-Pen(3)-K(PEG2PEG2gEC18OH)-T-7MeW-K(NMeAc)-Pen(3)-TMAPF-2Nal-THF-K(NMeAc)-N-3Pya-Sar-CON(Me)2] ({Me3N+(CH2)2O(CH2)2O(CH2)2CO}-[Pen]K([AEEA-AEEA-γGlu-C18 diacid])TW[Lys(Me)](Ac)[Pen]Y(X1)[2Nal][Thp][Lys(Me)](Ac)N[3Pal][Sar]-NMe2; disulfide 1-6), in that order: 6.30 to 7.30 and over 9.30.
The like results for `CC(=O)NCCCC[C@@H]1NC(=O)[C@H](Cc2c[nH]c3c(C)cccc23)NC(=O)[C@H]([C@@H](C)O)NC(=O)[C@H](CC(N)=O)NC(=O)[C@@H](NC(=O)[C@@H](CCCNC(=N)N)NC(C)=O)C(C)(C)SSC(C)(C)[C@@H](C(=O)N[C@@H](Cc2ccc(OCCCCC[N+](C)(C)C)cc2)C(=O)N[C@@H](Cc2ccc3ccccc3c2)C(=O)NC2(C(=O)N[C@@H](CCCCNC(=O)CCOCCOCCOCCOCCOCCOCCOCCOCCOCCOCCOCCOCCNC(=O)CC[C@H](NC(=O)CCCCCCCCCCCCCCCCC(=O)O)C(=O)O)C(=O)N[C@@H](CC(N)=O)C(=O)N[C@@H](Cc3cccnc3)C(=O)N(C)CC(=O)N(C)C)CCOCC2)NC1=O` [compound 123, cPEG3aCO-Pen(3)-N(N(Me)2)-T-7MeW-K(NMeAc)-Pen(3)-TMAPF-2Nal-THP-K(PEG12gEC18OH)-N-3Pya-Sar-CON(Me)2] (Ac-[dR][Pen]NT[Trp(7-Me)]K(Ac)[Pen]Y(X1)[2Nal][Thp]K([PEG12-γGlu-C18 diacid])N[3Pal][Sar]-NMe2; disulfide 2-7) were, in that order, over 7.30 and over 9.30.
For `CC(=O)N(C)CCCC[C@H](NC(=O)C1(NC(=O)[C@H](Cc2ccc3ccccc3c2)NC(=O)[C@H](Cc2ccc(OCCCCC[N+](C)(C)C)cc2)NC(=O)[C@H]2NC(=O)[C@H](CCCCNC(=O)CCOCCOCCOCCOCCOCCOCCOCCOCCOCCOCCOCCOCCNC(=O)CC[C@H](NC(=O)CCCCCCCCCCCCCCCCC(=O)O)C(=O)O)NC(=O)[C@H](CC3=CCc4c(C)cccc43)NC(=O)[C@H]([C@@H](C)O)NC(=O)[C@H](CC(=O)N(C)C)NC(=O)[C@@H](NC(=O)CCOCCOCC[N+](C)(C)C)C(C)(C)SSC2(C)C)CCOCC1)C(=O)N[C@@H](CC(N)=O)C(=O)N[C@@H](Cc1cccnc1)C(=O)N(C)CC(=O)N(C)C` [compound 124, cPEG3aCO-Pen(3)-N(N(Me)2)-T-7MeW-K(PEG12gEC18OH)-Pen(3)-TMAPF-2Nal-THP-K(NMeAc)-N-3Pya-Sar-CON(Me)2] ({Me3N+(CH2)2O(CH2)2O(CH2)2CO}-[Pen]D(NMe2)T[X37]K([PEG12-γGlu-C18 diacid])[Pen]Y(X1)[2Nal][Thp][Lys(Me)](Ac)N[3Pal][Sar]-NMe2; disulfide 1-6), in that order: over 7.30 and over 9.30.
